One experiment concerns E. coli (MCR-1). Type of experiment: cell-based, Escherichia coli. As to conditions: microbroth dilution per CLSI, MHB, 18 h at 37 °C, visual inspection, three technical replicates, E. coli 25922 carrying mcr-1. The method in brief:
(§1)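 Broth microdilution per CLSI in MHB: TSB cultures grown to OD600 ~0.5 were diluted to 2 × 10^5 CFU/mL and added to serially diluted compounds, then incubated 18 h at 37 °C with shaking. MIC is the lowest concentration preventing visible growth, from three technical replicates; the MCR-1 strain (E. coli ATCC 25922 background) was grown with kanamycin.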
Background: In broth dilution the organism is exposed to a series of concentrations in liquid medium.

A further experiment deals with E. coli ATCC 25922. Type of experiment: cell-based, Escherichia coli. To be noted: for Antibacterial activity (MIC) E. coli ATCC 25922: microbroth dilution per CLSI, MHB, 18 h at 37 °C, visual inspection, three technical replicates; for MIC (µg/mL) against E. coli (ATCC 25922): (Supplement 2). In a few lines: as §1
In the next experiment the test system is K. pneumoniae ATCC 13883. Type of experiment: cell-based, Klebsiella pneumoniae. As to conditions: microbroth dilution per CLSI, MHB, 18 h at 37 °C, visual inspection, three technical replicates. In a few lines: as §1
For a further experiment, the system named is P. aeruginosa PAO1. The class given is cell-based, Pseudomonas aeruginosa. As to conditions: microbroth dilution per CLSI, MHB, 18 h at 37 °C, visual inspection, three technical replicates. In a few lines:
as §1

For another experiment, the system named is S. aureus USA300. The class given is cell-based, Staphylococcus aureus. To be noted: microbroth dilution per CLSI, MHB, 18 h at 37 °C, visual inspection, three technical replicates. The method in brief: as §1
The subject of the next experiment is A. baumannii ATCC 17961. Type of experiment: cell-based, Acinetobacter baumannii. To be noted: microbroth dilution per CLSI, MHB, 18 h at 37 °C, visual inspection, three technical replicates. In a few lines: as §1

The text below walks through data of article PMC10150354, “Linearization of the Brevicidine and Laterocidine Lipopeptides Yields Analogues That Retain Full Antibacterial Activity” (Journal of Medicinal Chemistry, 2023).

In brackets after ≈: the same amount, converted by molar mass. Where a SMILES comes first, the peptide text is derived from it. [ ]: non-standard residue; d: D form. The star is where a group is joined. ξ: configuration not given here. Octanoyl(7-Me) = CC(C)CCCCCC(=O)*; Hexanoyl(4ξ-Me) = CCC(C)CCC(=O)*; dOrn = NCCC[C@@H](N)C(=O)O; Orn = NCCC[C@H](N)C(=O)O; Dap = NC[C@H](N)C(=O)O; OAll = C=CCO* A value given as a limit tells only on which side of the number the result lay.

In the case of `CC(C)CCCCCC(=O)N[C@H](CO)C(=O)N[C@H](Cc1ccc(O)cc1)C(=O)N[C@H](Cc1c[nH]c2ccccc12)C(=O)N[C@H](CCCN)C(=O)N[C@@H](CCCN)C(=O)NCC(=O)N[C@H](CCCN)C(=O)N[C@@H](Cc1c[nH]c2ccccc12)C(=O)N[C@H](C(N)=O)[C@@H](C)O` [Δ10–13LL-NH2 (14)] ({Octanoyl(7-Me)}-[dS][dY][dW][dOrn][Orn]G[dOrn]WT-NH2), the “Antibacterial activity (MIC) E. coli (MCR-1)” value in the experiment on E. coli (MCR-1) stood at 32 µg/mL. In addition, the “Antibacterial activity (MIC) E. coli ATCC 25922” value with E. coli ATCC 25922 is >32 µg/mL. In addition, the “Antibacterial activity (MIC) K. pneumoniae ATCC 13883” value in the experiment with K. pneumoniae ATCC 13883 was >32 µg/mL. In addition, the “Antibacterial activity (MIC) P. aeruginosa PAO1” value with P. aeruginosa PAO1 is >32 µg/mL. In addition, in the experiment on S. aureus USA300, the “Antibacterial activity (MIC) S. aureus USA300” value was >32 µg/mL. In the experiment with A. baumannii ATCC 17961, the “Antibacterial activity (MIC) A. baumannii ATCC 17961” value came to 32 µg/mL.

`CCC(C)CCC(=O)N[C@H](CC(N)=O)C(=O)N[C@H](Cc1ccc(O)cc1)C(=O)N[C@H](Cc1c[nH]c2ccccc12)C(=O)N[C@H](CCCN)C(=O)N[C@@H](CCCN)C(=O)NCC(=O)N[C@H](CCCN)C(=O)N[C@@H](Cc1c[nH]c2ccccc12)C(=O)N[C@H](C(=O)N[C@H](C(N)=O)[C@@H](C)CC)[C@@H](C)O` (some centres unmarked) [Δ11–12LB-NH2 (11)] ({Hexanoyl(4ξ-Me)}-[dN][dY][dW][dOrn][Orn]G[dOrn]WTI-NH2): in the experiment with E. coli (MCR-1), the “Antibacterial activity (MIC) E. coli (MCR-1)” value lay in the range of 4 to 8 µg/mL. The “Antibacterial activity (MIC) E. coli ATCC 25922” value in the experiment with E. coli ATCC 25922 came to 4 µg/mL. Further, the “Antibacterial activity (MIC) K. pneumoniae ATCC 13883” value in the experiment with K. pneumoniae ATCC 13883 is 2 µg/mL. Also, the “Antibacterial activity (MIC) P. aeruginosa PAO1” value in the experiment on P. aeruginosa PAO1 was determined as 2 µg/mL. Also, in the experiment with S. aureus USA300, the “Antibacterial activity (MIC) S. aureus USA300” value was >32 µg/mL. Moreover, the “Antibacterial activity (MIC) A. baumannii ATCC 17961” value in the experiment with A. baumannii ATCC 17961 amounted to 8 µg/mL.

Consider `CC[C@H](C)[C@H](NC(=O)[C@@H](NC(=O)[C@H](Cc1c[nH]c2ccccc12)NC(=O)[C@@H](CCCN)NC(=O)CNC(=O)[C@H](CCCN)NC(=O)[C@@H](CCCN)NC(=O)[C@@H](Cc1c[nH]c2ccccc12)NC(=O)[C@@H](Cc1ccc(O)cc1)NC(=O)[C@@H](CO)NC(=O)CCCCCC(C)C)[C@@H](C)O)C(N)=O` [Δ11–13LL-NH2 (12)] ({Octanoyl(7-Me)}-[dS][dY][dW][dOrn][Orn]G[dOrn]WTI-NH2), for which the “Antibacterial activity (MIC) E. coli (MCR-1)” value in the experiment on E. coli (MCR-1) amounted to 4 µg/mL. Moreover, the “Antibacterial activity (MIC) E. coli ATCC 25922” value with E. coli ATCC 25922 is 4 µg/mL. For the same molecule, the “Antibacterial activity (MIC) K. pneumoniae ATCC 13883” value in the experiment on K. pneumoniae ATCC 13883 stood at 2 µg/mL. Besides, the “Antibacterial activity (MIC) P. aeruginosa PAO1” value in the experiment with P. aeruginosa PAO1 worked out at 4 µg/mL. Moreover, the “Antibacterial activity (MIC) S. aureus USA300” value in the experiment on S. aureus USA300 was found to be 32 µg/mL. Further, the “Antibacterial activity (MIC) A. baumannii ATCC 17961” value with A. baumannii ATCC 17961 was 4 µg/mL.

For the molecule `CCC(C)CCC(=O)N[C@H](CC(N)=O)C(=O)N[C@H](Cc1ccc(O)cc1)C(=O)N[C@H](Cc1c[nH]c2ccccc12)C(=O)N[C@H](CCCN)C(=O)N[C@@H](CCCN)C(=O)NCC(=O)N[C@H](CCCN)C(=O)N[C@@H](Cc1c[nH]c2ccccc12)C(=O)N[C@@H](CC(N)=O)C(=O)N[C@H](C(=O)NCC(N)=O)[C@@H](C)CC` (some centres unmarked) [Δ12LB (Asn9)-NH2 (58)] ({Hexanoyl(4ξ-Me)}-[dN][dY][dW][dOrn][Orn]G[dOrn]WNIG-NH2), the “Antibacterial activity (MIC) E. coli (MCR-1)” value with E. coli (MCR-1) is 8 µg/mL. In the experiment on E. coli ATCC 25922, the “MIC (µg/mL) against E. coli (ATCC 25922)” value is listed as 4 µg/mL (≈ 2.73 µM) and the “Antibacterial activity (MIC) E. coli ATCC 25922” value worked out at 8 µg/mL. Also, in the experiment with K. pneumoniae ATCC 13883, the “Antibacterial activity (MIC) K. pneumoniae ATCC 13883” value was found to be 16 µg/mL. Also, the “Antibacterial activity (MIC) P. aeruginosa PAO1” value in the experiment with P. aeruginosa PAO1 was determined as 2 µg/mL. Moreover, the “Antibacterial activity (MIC) S. aureus USA300” value in the experiment on S. aureus USA300 was >32 µg/mL. Besides, the “Antibacterial activity (MIC) A. baumannii ATCC 17961” value with A. baumannii ATCC 17961 turned out to be 16 µg/mL.

`CCC(C)CCC(=O)N[C@H](CC(N)=O)C(=O)N[C@H](Cc1ccc(O)cc1)C(=O)N[C@H](Cc1c[nH]c2ccccc12)C(=O)N[C@H](CCCN)C(=O)N[C@@H](CCCN)C(=O)NCC(=O)N[C@H](CCCN)C(=O)N[C@@H](Cc1c[nH]c2ccccc12)C(=O)N[C@@H](CC(=O)O)C(=O)N[C@H](C(=O)NCC(N)=O)[C@@H](C)CC` (some centres unmarked) [Δ12LB (Asp9)-NH2 (63)] ({Hexanoyl(4ξ-Me)}-[dN][dY][dW][dOrn][Orn]G[dOrn]WDIG-NH2): the “Antibacterial activity (MIC) E. coli (MCR-1)” value in the experiment on E. coli (MCR-1) was >32 µg/mL. In the experiment with E. coli ATCC 25922, the “MIC (µg/mL) against E. coli (ATCC 25922)” value was 4 µg/mL (≈ 2.73 µM) and the “Antibacterial activity (MIC) E. coli ATCC 25922” value is >32 µg/mL. Besides, the “Antibacterial activity (MIC) K. pneumoniae ATCC 13883” value in the experiment with K. pneumoniae ATCC 13883 is >32 µg/mL. For the same molecule, the “Antibacterial activity (MIC) P. aeruginosa PAO1” value with P. aeruginosa PAO1 came to 4 µg/mL. In the experiment on S. aureus USA300, the “Antibacterial activity (MIC) S. aureus USA300” value is >32 µg/mL. The “Antibacterial activity (MIC) A. baumannii ATCC 17961” value in the experiment on A. baumannii ATCC 17961 is >32 µg/mL.

With `CCC(C)CCC(=O)N[C@H](CC(N)=O)C(=O)N[C@H](Cc1ccc(O)cc1)C(=O)N[C@H](Cc1c[nH]c2ccccc12)C(=O)N[C@H](CCCN)C(=O)N[C@@H](CCCN)C(=O)NCC(=O)N[C@H](CCCN)C(=O)N[C@@H](Cc1c[nH]c2ccccc12)C(=O)N[C@@H](CN)C(=O)N[C@H](C(=O)NCC(N)=O)[C@@H](C)CC` (some centres unmarked) [Δ12LB (Dap9)-NH2 (64)] ({Hexanoyl(4ξ-Me)}-[dN][dY][dW][dOrn][Orn]G[dOrn]W[Dap]IG-NH2), in the experiment with E. coli (MCR-1), the “Antibacterial activity (MIC) E. coli (MCR-1)” value amounted to 8 µg/mL. In the experiment on E. coli ATCC 25922, the “MIC (µg/mL) against E. coli (ATCC 25922)” value was >32 µg/mL and the “Antibacterial activity (MIC) E. coli ATCC 25922” value stood at 8 µg/mL. Moreover, in the experiment with K. pneumoniae ATCC 13883, the “Antibacterial activity (MIC) K. pneumoniae ATCC 13883” value was >32 µg/mL. Besides, the “Antibacterial activity (MIC) P. aeruginosa PAO1” value with P. aeruginosa PAO1 turned out to be 4 µg/mL. Also, the “Antibacterial activity (MIC) S. aureus USA300” value in the experiment on S. aureus USA300 was >32 µg/mL. In the experiment on A. baumannii ATCC 17961, the “Antibacterial activity (MIC) A. baumannii ATCC 17961” value was 16 µg/mL.

Take `CCC(C)CCC(=O)N[C@H](CC(N)=O)C(=O)N[C@H](Cc1ccc(O)cc1)C(=O)N[C@H](Cc1c[nH]c2ccccc12)C(=O)N[C@H](CCCN)C(=O)N[C@@H](CCCN)C(=O)NCC(=O)N[C@H](CCCN)C(=O)N[C@@H](Cc1c[nH]c2ccccc12)C(=O)N[C@@H](CCC(N)=O)C(=O)N[C@H](C(=O)NCC(N)=O)[C@@H](C)CC` (some centres unmarked) [Δ12LB (Gln9)-NH2 (59)] ({Hexanoyl(4ξ-Me)}-[dN][dY][dW][dOrn][Orn]G[dOrn]WQIG-NH2): in the experiment on E. coli (MCR-1), the “Antibacterial activity (MIC) E. coli (MCR-1)” value is 8 µg/mL. Further, in the experiment with E. coli ATCC 25922, the “MIC (µg/mL) against E. coli (ATCC 25922)” value is on record as 8 µg/mL (≈ 5.42 µM) and the “Antibacterial activity (MIC) E. coli ATCC 25922” value turned out to be 8 µg/mL. Also, the “Antibacterial activity (MIC) K. pneumoniae ATCC 13883” value with K. pneumoniae ATCC 13883 was determined as 16 µg/mL. In the experiment with P. aeruginosa PAO1, the “Antibacterial activity (MIC) P. aeruginosa PAO1” value amounted to 2 µg/mL. Besides, the “Antibacterial activity (MIC) S. aureus USA300” value in the experiment on S. aureus USA300 is >32 µg/mL. Also, in the experiment on A. baumannii ATCC 17961, the “Antibacterial activity (MIC) A. baumannii ATCC 17961” value came out at 16 µg/mL.

Regarding `C=CCOC(=O)CC[C@H](NC(=O)[C@H](Cc1c[nH]c2ccccc12)NC(=O)[C@@H](CCCN)NC(=O)CNC(=O)[C@H](CCCN)NC(=O)[C@@H](CCCN)NC(=O)[C@@H](Cc1c[nH]c2ccccc12)NC(=O)[C@@H](Cc1ccc(O)cc1)NC(=O)[C@@H](CC(N)=O)NC(=O)CCC(C)CC)C(=O)N[C@H](C(=O)NCC(N)=O)[C@@H](C)CC` (some centres unmarked) [Δ12LB (Glu[OAll]9)-NH2 (62)] ({Hexanoyl(4ξ-Me)}-[dN][dY][dW][dOrn][Orn]G[dOrn]WE(OAll)IG-NH2), the “Antibacterial activity (MIC) E. coli (MCR-1)” value with E. coli (MCR-1) turned out to be 8 µg/mL. Besides, in the experiment with E. coli ATCC 25922, the “MIC (µg/mL) against E. coli (ATCC 25922)” value turned out to be 4 µg/mL (≈ 2.64 µM) and the “Antibacterial activity (MIC) E. coli ATCC 25922” value came to 4 µg/mL. The “Antibacterial activity (MIC) K. pneumoniae ATCC 13883” value with K. pneumoniae ATCC 13883 came to 4 µg/mL. Also, the “Antibacterial activity (MIC) P. aeruginosa PAO1” value with P. aeruginosa PAO1 worked out at 2 µg/mL. Moreover, in the experiment with S. aureus USA300, the “Antibacterial activity (MIC) S. aureus USA300” value was >32 µg/mL. In addition, in the experiment on A. baumannii ATCC 17961, the “Antibacterial activity (MIC) A. baumannii ATCC 17961” value was 8 µg/mL.
